Where two headings read alike, the source gives them in different places.
Tested on: HEK293T cells
Format: cell-based
How it was run: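 HEK293T and U2OS cells (DMEM) and MRC-9 fibroblasts (EMEM) exposed to compounds at 1 and 10 μM. Live-cell confocal imaging of cell shape and fluorescence before and at 12, 24 and 48 h. Normalized to 0.1% DMSO; biological duplicates with SEM.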

[1] = 1 µM, 0 h, HEK293T, replicate 2
[2] = 1 µM, 12 h, HEK293T, replicate 2
[3] = 1 µM, 24 h, HEK293T, replicate 2
[4] = 1 µM, 48 h, HEK293T, replicate 1
[5] = 1 µM, 48 h, HEK293T, replicate 2
[6] = 10 µM, 0 h, HEK293T, replicate 2
[7] = 10 µM, 12 h, HEK293T, replicate 2
[8] = 10 µM, 24 h, HEK293T, replicate 2
[9] = 10 µM, 48 h, HEK293T, replicate 2
[10] = HEK293T, 1 µM, 0 h after treatment
[11] = HEK293T, 1 µM, 12 h after treatment
[12] = HEK293T, 1 µM, 24 h after treatment
[13] = HEK293T, 10 µM, 0 h after treatment
[14] = HEK293T, 10 µM, 12 h after treatment
[15] = HEK293T, 10 µM, 24 h after treatment
[16] = HEK293T, 10 µM, 48 h after treatment

CN1C(=O)[C@@H](N2CCc3c(nn(Cc4ccccc4)c3C(N)=O)C2=O)COc2cc(Cl)ccc21 [Compound 10, (S)-2-benzyl-6-(8-chloro-5-methyl-4-oxo-2,3,4,5-tetrahydrobenzo[b][1,4]oxazepin-3-yl)-7-oxo-4,5,6,7-tetrahydro-2H-pyrazolo[3,4-c]pyridine-3-carboxamide]
Cell count normalized to cells treated with DMSO control [1]: 0.9791 | Cell count per well [1]: 224 | Population Fragmented Nuclei (%) [1]: 4.50% | Population Healthy Nuclei (%) [1]: 67.00% | Population Pyknosed Nuclei (%) [1]: 28.50% | Population apoptotic cell (%) [1]: 66.67% | Population cell that influence microtubule strucutre (%) [1]: 23.88% | Population with increased mitochondrial mass (%) [1]: 83.58% | Population with membrane disruption (%) [1]: 0.00% | Cell count normalized to cells treated with DMSO control [2]: 1.07 | Cell count per well [2]: 375 | Population Fragmented Nuclei (%) [2]: 6.44% | Population Healthy Nuclei (%) [2]: 80.67% | Population Pyknosed Nuclei (%) [2]: 12.89% | Population apoptotic cell (%) [2]: 23.91% | Population cell that influence microtubule strucutre (%) [2]: 20.49% | Population with increased mitochondrial mass (%) [2]: 45.83% | Population with membrane disruption (%) [2]: 0.69% | Cell count normalized to cells treated with DMSO control [3]: 1.152 | Cell count per well [3]: 520 | Population Fragmented Nuclei (%) [3]: 9.33% | Population Healthy Nuclei (%) [3]: 82.94% | Population Pyknosed Nuclei (%) [3]: 7.74% | Population apoptotic cell (%) [3]: 43.59% | Population cell that influence microtubule strucutre (%) [3]: 13.64% | Population with increased mitochondrial mass (%) [3]: 27.75% | Population with membrane disruption (%) [3]: 0.24% | Cell count normalized to cells treated with DMSO control [4]: 1.025 | Cell count per well [4]: 1037 | Population Fragmented Nuclei (%) [4]: 16.00% | Population Healthy Nuclei (%) [4]: 79.80% | Population Pyknosed Nuclei (%) [4]: 4.20% | Population apoptotic cell (%) [4]: 6.98% | Population cell that influence microtubule strucutre (%) [4]: 10.88% | Population with increased mitochondrial mass (%) [4]: 12.47% | Population with membrane disruption (%) [4]: 2.32% | Cell count normalized to cells treated with DMSO control [5]: 1.189 | Cell count per well [5]: 812 | Population Fragmented Nuclei (%) [5]: 18.11% | Population Healthy Nuclei (%) [5]: 75.56% | Population Pyknosed Nuclei (%) [5]: 6.33% | Population apoptotic cell (%) [5]: 17.65% | Population cell that influence microtubule strucutre (%) [5]: 11.82% | Population with increased mitochondrial mass (%) [5]: 11.00% | Population with membrane disruption (%) [5]: 1.97% | cytotoxicity (1 μM, HEK293T): no cytotoxicity | Cell count normalized to cells treated with DMSO control [6]: 0.8086 | Cell count per well [6]: 185 | Population Fragmented Nuclei (%) [6]: 2.99% | Population Healthy Nuclei (%) [6]: 66.47% | Population Pyknosed Nuclei (%) [6]: 30.54% | Population apoptotic cell (%) [6]: 64.71% | Population cell that influence microtubule strucutre (%) [6]: 27.03% | Population with increased mitochondrial mass (%) [6]: 85.59% | Population with membrane disruption (%) [6]: 0.00% | Cell count normalized to cells treated with DMSO control [7]: 0.8449 | Cell count per well [7]: 296 | Population Fragmented Nuclei (%) [7]: 7.69% | Population Healthy Nuclei (%) [7]: 76.54% | Population Pyknosed Nuclei (%) [7]: 15.77% | Population apoptotic cell (%) [7]: 63.41% | Population cell that influence microtubule strucutre (%) [7]: 38.69% | Population with increased mitochondrial mass (%) [7]: 77.89% | Population with membrane disruption (%) [7]: 0.00% | Cell count normalized to cells treated with DMSO control [8]: 0.8682 | Cell count per well [8]: 392 | Population Fragmented Nuclei (%) [8]: 11.70% | Population Healthy Nuclei (%) [8]: 77.99% | Population Pyknosed Nuclei (%) [8]: 10.31% | Population apoptotic cell (%) [8]: 56.76% | Population cell that influence microtubule strucutre (%) [8]: 28.21% | Population with increased mitochondrial mass (%) [8]: 65.71% | Population with membrane disruption (%) [8]: 0.00% | Cell count normalized to cells treated with DMSO control [9]: 0.7573 | Cell count per well [9]: 517 | Population Fragmented Nuclei (%) [9]: 16.37% | Population Healthy Nuclei (%) [9]: 77.05% | Population Pyknosed Nuclei (%) [9]: 6.59% | Population apoptotic cell (%) [9]: 39.39% | Population cell that influence microtubule strucutre (%) [9]: 19.17% | Population with increased mitochondrial mass (%) [9]: 40.93% | Population with membrane disruption (%) [9]: 0.00% | toxicity (10 μM, within the 48 h time frame, b30 names HEK293T (apoptotic cell population)): slight increase in toxicity | impact on tubulin, mitochondrial mass, and cellular permeability in healthy cells (HEK293T, 1 μM (Figure 6)): comparable to that of the 0.1% DMSO control | Cell count normalized to cells treated with DMSO control [10]: 1.066 | Cell count per well [10]: 318 | Population Fragmented Nuclei (%) [10]: 7.28% | Population Healthy Nuclei (%) [10]: 48.28% | Population Pyknosed Nuclei (%) [10]: 44.44% | Population apoptotic cell (%) [10]: 40.52% | Population cell that influence microtubule strucutre (%) [10]: 21.43% | Population with increased mitochondrial mass (%) [10]: 63.49% | Population with membrane disruption (%) [10]: 0.00% | Cell count normalized to cells treated with DMSO control [11]: 1.032 | Cell count per well [11]: 470 | Population Fragmented Nuclei (%) [11]: 6.59% | Population Healthy Nuclei (%) [11]: 81.41% | Population Pyknosed Nuclei (%) [11]: 12.00% | Population apoptotic cell (%) [11]: 25.49% | Population cell that influence microtubule strucutre (%) [11]: 28.03% | Population with increased mitochondrial mass (%) [11]: 37.86% | Population with membrane disruption (%) [11]: 0.58% | Cell count normalized to cells treated with DMSO control [12]: 1.043 | Cell count per well [12]: 633 | Population Fragmented Nuclei (%) [12]: 13.01% | Population Healthy Nuclei (%) [12]: 77.59% | Population Pyknosed Nuclei (%) [12]: 9.39% | Population apoptotic cell (%) [12]: 29.82% | Population cell that influence microtubule strucutre (%) [12]: 18.05% | Population with increased mitochondrial mass (%) [12]: 21.02% | Population with membrane disruption (%) [12]: 0.85% | Cell count normalized to cells treated with DMSO control [13]: 0.8779 | Cell count per well [13]: 262 | Population Fragmented Nuclei (%) [13]: 12.05% | Population Healthy Nuclei (%) [13]: 39.73% | Population Pyknosed Nuclei (%) [13]: 48.21% | Population apoptotic cell (%) [13]: 50.00% | Population cell that influence microtubule strucutre (%) [13]: 14.61% | Population with increased mitochondrial mass (%) [13]: 59.55% | Population with membrane disruption (%) [13]: 0.00% | Cell count normalized to cells treated with DMSO control [14]: 0.8806 | Cell count per well [14]: 401 | Population Fragmented Nuclei (%) [14]: 9.68% | Population Healthy Nuclei (%) [14]: 77.15% | Population Pyknosed Nuclei (%) [14]: 13.17% | Population apoptotic cell (%) [14]: 46.94% | Population cell that influence microtubule strucutre (%) [14]: 42.51% | Population with increased mitochondrial mass (%) [14]: 57.84% | Population with membrane disruption (%) [14]: 0.00% | Cell count normalized to cells treated with DMSO control [15]: 0.8057 | Cell count per well [15]: 489 | Population Fragmented Nuclei (%) [15]: 10.83% | Population Healthy Nuclei (%) [15]: 78.34% | Population Pyknosed Nuclei (%) [15]: 10.83% | Population apoptotic cell (%) [15]: 43.14% | Population cell that influence microtubule strucutre (%) [15]: 28.46% | Population with increased mitochondrial mass (%) [15]: 48.51% | Population with membrane disruption (%) [15]: 0.27% | Cell count normalized to cells treated with DMSO control [16]: 0.8197 | Cell count per well [16]: 829 | Population Fragmented Nuclei (%) [16]: 23.14% | Population Healthy Nuclei (%) [16]: 71.74% | Population Pyknosed Nuclei (%) [16]: 5.12% | Population apoptotic cell (%) [16]: 33.33% | Population cell that influence microtubule strucutre (%) [16]: 14.26% | Population with increased mitochondrial mass (%) [16]: 26.32% | Population with membrane disruption (%) [16]: 0.51%

CN1C(=O)[C@@H](N2CCc3c(C(N)=O)nn(Cc4ccccc4)c3C2=O)COc2ccccc21 [Compound 11]
Population with membrane disruption (%) (human, 0 h, 10 µM): 0.00% | Population with membrane disruption (%) (human, 12 h, 10 µM): 0.00% | Population with membrane disruption (%) (human, 24 h, 10 µM): 0.00%
